# Test results: patent US11117919B2, “Icariside compound, preparation method thereof, and application thereof” (FOSHAN GOLDEN HEALTH TECHNOLOGY CO., LTD., priority 2015, dated 2021)
# What was measured:
# [1] = system: human peripheral blood mixed lymphocytes; assay: IFN-γ production in mixed lymphocyte culture (MLC) reaction; assay type: cell-based; conditions: 120 h
# Method: Effect of icariside I on promotion of γ-interferon (interferon-gamma, IFN-γ) production by human peripheral blood mixed lymphocytes during culture (an experimental model mimicking enhancing immunity in human body).
# (1) Preparation of human peripheral blood mononuclear cells (PBMCs): following the method in Example 5 (2), peripheral blood PBMCs from two normal human were prepared.
# Cell concentrations of freshly isolated peripheral blood mononuclear cells (PBMCs) were adjusted to […] with RPMI1640 complete medium. Then, lymphocytes from two healthy human with equal volumes were mixed to maintain a total cell concentration of […]. Different concentrations (in a gradient) of or no icariside I were added thereto (with final concentration of 100 ng/ml, 1000 ng/ml) followed by fully mixing. Then the cells after stimulation were seeded and cultured in a 96-well round-bottom culture plate. The cell concentration per well was maintained at 2×10^5/ml (200 μl/well) and was incubated at 37° C. with 5% CO2 for 120 h in an incubator. The levels of cytokine IFN-γ were detected.
# According to the method stated in Example 5 (4), the γ-interferon generated from human peripheral blood mixed lymphocyte culture (MLC) was detected.
# Equal cell concentrations of lymphocytes from healthy human were mixed cultured for five days (120 h). The pharmaceutical icariside I was added (in a gradient of different pharmaceutical concentrations) or not added. […] Among them, the human lymphocyte A control is a group of samples containing only one kind of human lymphocyte, while human lymphocyte B control is a group of samples containing two kinds of human lymphocytes, that is, a control group in which two kinds of human lymphocytes were mixed for culture without adding icariside I. The concentrations of icariside I added were 0.1 and 1 μg/ml respectively. *P<0.05; **P<0.01. […]
# Cell concentrations of freshly isolated peripheral blood mononuclear cells (PBMCs) were adjusted to 5×10^5/ml with RPMI1640 complete medium. […] The level of cytokine IFN-γ produced was then detected.
# PBMCs from healthy human = assay: IFN-γ production by PBMCs of healthy human cultured with icariside I (Example 9); assay type: cell-based; conditions: 0.1, 0.5, 1 μg/ml, 48 h
# Method: (1) Isolation of human peripheral blood mononuclear cells (PBMCs): according to the method stated in Example 5 (2), normal human peripheral blood PBMCs were prepared.
# (§1) (3) PBMCs and PFMCs cell culture (MLC) with stimulation by a pharmaceutical: Icariside I was used at concentrations of 0.1 μg/ml, 0.5 μg/ml, and 1 μg/ml respectively to stimulate PBMCs and PFMCs under the incubation condition at 37° C. with 5% CO2 for 48 hours.
# (4) ELISA assay for analysis of IFN-γ: according to the method stated in Example 5 (4), the levels of γ-interferon produced by PBMCs and PFMCs after culture with pharmaceutical stimulations were measured.
# PBMCs from healthy human and PFMCs from TB infected patients were respectively cultured for 2 days (48 h), then added or not added with the pharmaceutical icariside I (at a gradient of different concentrations). […] Among the tests, the concentrations of icariside I added were 0.1, 0.5 and 1 μg/ml. *P<0.05; **-***P<0.01.
# [2] = system: PFMCs from TB infected patients; assay: IFN-γ production by pleural fluid cells (PFMCs) of tuberculosis patients; assay type: cell-based, human; conditions: 0.1, 0.5, 1 μg/ml, 48 h
# Method: (2) Isolation of Pleural fluid cells (PFMCs, namely cells stimulated by tuberculosis bacteria infection) from patients suffering from tuberculosis: blood samples were taken from volunteers (vein blood of TB patients) and then anticoagulated with heparin and diluted with an equal volume of Hank's solution. The solution was centrifuged once (1800 rpm, 22° C. 8 minutes). After removal of the supernatant, an appropriate amount of ELS (erythrocyte lysate) was added for re-suspension. After 3-5 minutes, an appropriate amount of Hank's solution was added for stop and then the mixture was centrifuged twice (1800 rpm, 22° C. 8 minutes), followed by addition of RPMI1640 complete medium to adjust the PBMC cell concentration to 2×10^9 cells/L.
# as §1
# (4) ELISA assay for analysis of IFN-γ: according to the method stated in Example 5 (4), the levels of γ-interferon produced by PBMCs and PFMCs after culture with pharmaceutical stimulations were measured. […]
# [3] = system: human peripheral blood mononuclear cells (PBMCs); assay: Immunological screening model: IFN-γ produced in human PBMCs; assay type: cell-based
# Excerpt: The present inventors have long been researching the active components in traditional Chinese herbal medicine and their applications in immunotherapy. The present inventors have established an immunological test model based on determination of the level of IFN-γ produced in human peripheral blood mononuclear cells (PBMCs). By this model, compounds having promotion (or inhibition) effects on human peripheral blood mononuclear cells (PBMCs) to produce γ-interferon can be screened out from chemical components from various sources including traditional Chinese herbal medicine, medicinal plants and so on. Since the γ-Interferon is an important protein (cytokine) in human body's immune system to resist attacks from diseases, its production level in body directly relates to the body's immunity. Therefore, the model is an ideal tool to screen and find functional pharmaceuticals for improving human immunity.
# In addition, all the results and achievements of the present invention are based on the very effective screening model established by the present inventors. Therefore, a further objective of the present invention is to provide an experimental model for screening substances having impacts (either enhance or inhibit) on immunity. […] Finally, by using ELISA techniques, the levels of IFN-γ produced in the culture were measured at different incubation time. […]
compound,measurement,setting,value
COc1ccc(-c2oc3c(CC=C(C)C)c(O[C@@H]4O[C@H](CO)[C@@H](O)[C@H](O)[C@H]4O)cc(O)c3c(=O)c2O)cc1 [icariside I],promotion of generation of IFN-γ in the mixed lymphocyte culture,"[1]; 100 and 1000 ng/ml, dose dependent",up to 300%
same,ability to promote human γ-interferon production in mixed lymphocyte culture,[1]; final concentration 1000 ng/ml,best ability
same,effect on PBMCs in producing IFN-γ,PBMCs from healthy human,no significant promoting effect
same,effect on PFMCs in producing IFN-γ,[2],significant and dose dependent effect
same,effect in promoting PBMCs to generate IFN-γ,[3],significant effect
